What was measured:
[1] = tested on: Female db/db mice; experiment: HbA1c, 4 weeks treatment in db/db mice; format: in vivo; settings: 28 days, vehicle 9.06%
Method: Female db/db mice were purchased from Taconic (Lille Skensved, Denmark) at 5-6 weeks of age and were maintained under standard conditions (5 animals/cage; 12 h light-dark cycle; room temperature of 22±2° C.; relative humidity of 60±15%). All mice had free access to water and standard chow (Provimi Kliba, Kaiseraugst, Switzerland). Four days upon arrival animals were randomized based on body weight and levels of glycated hemoglobin 1c (HbA1c). At 7 weeks of age, animals were treated daily by oral gavage with vehicle (4% methylcellulose) or with Compound A (composed in aqueous 4% methylcellulose) using doses of 1, 3 and 10 mg/kg s.i.d. (doses related to free base). The required dose was applied in a volume of 10 ml/kg body weight. Each dose group consisted of 10 animals. At the end of the treatment period plasma samples were isolated for determination of HbA1c levels. All experimental procedures were conducted according to the German Animal Protection Law.
HbA1c was analyzed from tail-tip-blood (HbA1c determination before treatment) as well as from blood collected from the retro-orbital venous plexus (HbA1c determination after 4 weeks treatment) using the Hemoglobin A1c Test (Siemens, Bad Nauheim, Germany).
Statistical analysis: Values are presented as means±SEM. Statistical differences were determined using one-way-ANOVA followed by a post-hoc analysis with Dunnet's correction (GraphPad Prism).

[2] = tested on: TNFα gene expression; experiment: Hepatic gene expression in prophylactic NASH mouse model, TNFα (Taqman PCR); format: in vivo; settings: LDLR-KO mice on mCDAA diet; 1, 3 and 10 mg/kg p.o. QD for 7 weeks; liver mRNA
Method: Homozygous low-density lipoprotein receptor knockout (LDLR-KO) mice were fed with chow or modified choline deficient, L-amino acid-defined (mCDAA) diet (A08111307, Research Diets, USA). After 1 week under chow or mCDAA diet, the mice were orally dosed with Compound A (1, 3 and 10 mg/5 ml/kg, QD, n=10; suspension in 0.5 w/v % methylcellulose suspension) for 7 weeks.
In addition prophylactic effects of Compound A on hepatic gene expression were evaluated. After total RNA was extracted from liver, cDNA was amplified using High-Capacity cDNA Reverse Transcription Kit (ABI 4368813), and target gene mRNA was measured using Taqman PCR. The target gene expression level was normalized by GAPDH.

[3] = tested on: male C57BL/6J mice (high caloric diet); experiment: Liver lipidosis / liver weight, 8 weeks treatment in diet induced obese (DIO) mice; format: in vivo; settings: for Liver weight (Day 56) / Grade Liver Lipidosis (mean): high caloric diet; for Liver weight (Day 56): vehicle HD 1.04, SD 0.96; for Grade Liver Lipidosis (mean): day 56, grades 1 minimal to 4 marked, vehicle HD 1.5
From the text: Obesity was induced in male C57BL/6J mice (Charles River, Germany; 6 weeks of age weighing 19-20 g at start of study) by feeding a high caloric diet (60% kcal % fat; No. 2127; Provimi-Kliba, Switzerland)) for 7 weeks. Animals were single housed in Makrolon cages type II-Long with free access to food and tap water. When body weight gain exceeded 50% compared to body weight at onset of diet, the animals were randomized according to body weight (day −4) followed by treatment for 8 weeks with daily doses of Compound A (0.3, 1, 3 and 10 mg/kg/day, p.o; dissolved in 4% (w/v) aqueous methocel solution to give the required dose in a volume of 10 mL/kg body weight; n=10 in each group). After 8 weeks of treatment, animals were sacrificed. Liver was removed, weighed and fixed in 4% neutral buffered formalin for 2 days, embedded in paraffine and stained with Hematoxylin-Eosin for histological evaluation. The slides were blinded for histological reading and liver lipidosis was evaluated by light microscopy.
The degree of liver lipidosis was assessed semi-quantitatively by the following grading criteria:
Grade 1 (minimal): small round cytoplasmic vacuoles within hepatocytes
Grade 2 (mild): small to medium sized round cytoplasmic vacuoles within hepatocytes
Grade 3 (moderate): in addition: round cytoplasmic vacuoles, partly forcing the nucleus to the periphery of the cell
Grade 4 (marked): in addition: whole lobe affected
For focal changes or multifocal changes 0.5 or 0.25 were subtracted respectively. The mean severity index was calculated by dividing the sum of all gradings/group by the number of animals/group.

[4] = tested on: Tumor Necrosis Factor Alpha (TNFα); experiment: Systemic TNFα release in LPS-challenged Sprague Dawley rats; format: in vivo; settings: SD rats; 0.1, 0.3, 1, 3 and 10 mg/kg p.o. 1 h before LPS 20 μg/kg i.v.; plasma 1 h after LPS; significant at all doses
Method: Compound A was administered 1 h before LPS challenge at doses of 0.1, 0.3, 1, 3 and 10 mg/kg (n=8 animals per dose group). An LPS and vehicle treated control group of n=8 animals was enclosed. Compound A or vehicle was given per os (p.o.) by gavage (administration volume: 10 mL/kg b.w.). LPS was injected intravenously (i.v.) at a dose of 20 μg/kg (administration volume: 1 mL/kg b.w.) 1 h after compound or vehicle administration.
One hour after LPS-challenge, the animals were sacrificed by inhalative isoflurane anaesthesia (5%; flow rate: 2-3 L/min) and subsequent cervical dislocation. Heparinized blood was obtained by heart puncture. Blood was centrifuged (21,000×g, 4° C., 10 min), and plasma samples were kept frozen at −20° C. until determination of TNFα levels by ELISA.

[5] = tested on: alfa smooth muscle actin (αSMA) gene expression in human stellate cells (HSCs); experiment: Anti-fibrotic activity in human hepatic stellate cells (TGF-β-induced αSMA gene expression); format: cell-based; settings: primary human HSCs; 0.0001-1 μM, TGF-β 0.2 ng/mL, forskolin 1 μM, 24 hours
Method: The effect on human stellate cells (HSCs) activation was evaluated by gene expression of alfa smooth muscle actin (αSMA) induced by TGF-β.
Primary HSCs (ScienCell) were suspended in serum-free SteCM medium (ScienCell) and seeded on Poly-D-Lysine-coated 96 well plates as 2.5×10^3 cells/100 uL/well. Six hours after the seeding, HSCs were treated with Compound A (0, 0.0001, 0.001, 0.01, 0.1, and 1 μM), TGF-β (0.2 ng/mL) and forskolin (1 μM) for 24 hours. After the 24-hours incubation, total RNA was extracted from cell lysate using RNeasy 96 Kit (QIAGEN 74182). cDNA was amplified using High-Capacity cDNA Reverse Transcription Kit (ABI 4368813), and target gene mRNA was measured using Taqman PCR. The target gene expression level was normalized by GAPDH. The experiment was repeated 5 times.

[6] = 3 and 10 mg/kg p.o. daily, 8 weeks

SMILES: CCOc1cc2c(cc1OC)C(c1ccc(=O)n(C)c1)=N[C@@H]1CC[C@@H](O)C[C@H]21 [Compound A, 5-((2R,4aR,10bR)-9-Ethoxy-2-hydroxy-8-methoxy-1,2,3,4,4a,10b-hexahydro-phenanthridin-6-yl)-1-methyl-1H-pyridin-2-one]
- mean HbA1c ([1]; 1 mg/kg p.o. daily, 1 mg/kg): 7.27%
- mean HbA1c ([1]; 3 mg/kg p.o. daily, 3 mg/kg): 7.06%
- mean HbA1c ([1]; 10 mg/kg p.o. daily, 10 mg/kg): 6.16%
- hepatic inflammatory TNFα gene expression (normalized by GAPDH) [2]: dose-dependent reduction
- increase in liver weight caused by high caloric diet [3, 6]: completely abolished
- liver lipidosis [3, 6]: almost abolished
- Liver weight (Day 56) ([3]; 0.3 mg/kg p.o. daily, 8 weeks): 1.08 g
- Grade Liver Lipidosis (mean) ([3]; 0.3 mg/kg p.o.): 1.4
- Liver weight (Day 56) ([3]; 1.0 mg/kg p.o. daily, 8 weeks): 1.01 g
- Grade Liver Lipidosis (mean) ([3]; 1.0 mg/kg p.o.): 0.6
- Liver weight (Day 56) ([3]; 3.0 mg/kg p.o. daily, 8 weeks): 0.96 g
- Grade Liver Lipidosis (mean) ([3]; 3.0 mg/kg p.o.): 0.3
- Liver weight (Day 56) ([3]; 10 mg/kg p.o. daily, 8 weeks): 0.95 g
- Grade Liver Lipidosis (mean) ([3]; 10.0 mg/kg p.o.): 0.2
- mean TNFα in blood plasma [4]: dose-dependently reduced
- TGF-β-induced αSMA gene expression in HSCs [5]: dose-dependently suppressed

From patent US11179384B2, “Treatment of nonalcoholic fatty liver disease” (TAKEDA GMBH, priority 2016, dated 2021)
